# Test results from patent US20030083241A1, “Use of somatostatin receptor agonists in the treatment of human disorders of sleep hypoxia and oxygen deprivation” (priority 2001, published 2003).
# Tests used:
# GERD symptoms = assay: Clinical observation of GERD symptoms in a terminal cancer patient given octreotide; type: in vivo, human
# Method: Development of the present invention was stimulated by an event in Applicant's clinical practice of oncology. Octretotide was added to the treatment program of a patient with terminal cancer because the patient's cancer concentrated radiolabelled octreotide on a nuclear medicine scan. Treatment was initiated with subcutaneous octreotide at a dose of 150 microgram twice daily, then three times daily, and then finally the patient was shifted to a longer-acting depot formulation of octreotide (Sandostatin LAR) that was given intramuscularly on a monthly basis.
# GHRH hormone secretion = settings: in vivo; cited from earlier work
# [1] = tested on: TNF-alpha, Interleukin-1 beta and Interleukin-6; settings: cited from earlier work
# obstructive sleep apnea = settings: octreotide given as therapy for the endocrine disorder; cited from earlier work
compound,measurement,setting,value
"C[C@@H](O)[C@@H]1NC(=O)[C@H](CCCCN)NC(=O)[C@@H](Cc2c[nH]c3ccccc23)NC(=O)[C@H](Cc2ccccc2)NC(=O)[C@@H](NC(=O)[C@H](N)Cc2ccccc2)CSSC[C@@H](C(=O)N[C@H](CO)[C@@H](C)O)NC1=O [octreotide, octreotide acetate]",GERD symptoms after initiation of octreotide administration,"GERD symptoms; one patient with terminal cancer, subcutaneous 150 microgram twice, then three times daily, then monthly IM Sandostatin LAR, symptoms present for many years",rapid and complete disappearance of GERD symptoms
same,duration of control of GERD symptomatology,"GERD symptoms; same patient, until death from a complication of the cancer unrelated to therapy",maintained for several months
same,GHRH hormone secretion,GHRH hormone secretion,inhibited
same,"secretion of TNF-alpha, Interleukin-1 beta and Interleukin-6",[1],inhibit
same,obstructive sleep apnea in patients with acromegaly,obstructive sleep apnea,ameliorated in many patients
